Values of other authors as cited in PubChem BioAssay AID1259409 (Chemical Carcinogenesis Research Information System (CCRIS), 2018).
Where “and” joins values, the source holds several entries; their conditions need not be identical. Equal entries are not always repeated.

Test system: rodent chemically induced tumor inhibition, incidence and multiplicity
Assay: CCRIS tumor inhibitor studies

For `C=C1/C(=C\C=C2/CCC[C@]3(C)[C@@H]([C@H](C)CCCC(C)(C)O)CC[C@@H]23)C[C@@H](O)C[C@@H]1O`, the “tumour outcome (control, treated, inhibition, significance)” value (Carcinogen: 7,12-DIMETHYLBENZ[A]ANTHRACENE, 57-97-6, Dose [Inhibitor]: 0.125 NMOL 2/WK STARTING 1 WK AFTER CARCINOGEN TREATMENT AND CONTINUING FOR 9 WK (STUDY DURATION: 10 WK), Route [Inhibitor]: DERMAL, Species: MOUSE, Strain/Sex: CD-1/FEMALE, Target Tissue: Type of Lesion: SKIN: PAPILLOMA, Dose [Carcinogen]: 20 NMOL ONCE, Promoter: 12-O-TETRADECANOYLPHORBOL-13-ACETATE, 16561-29-8) is listed as 77%, 37%, 52%, p<0.05, the “tumour outcome (control, treated, inhibition, significance)” value (Carcinogen: 7,12-DIMETHYLBENZ[A]ANTHRACENE, 57-97-6, Dose [Inhibitor]: 0.125 NMOL 2/WK STARTING 1 WK AFTER CARCINOGEN TREATMENT AND CONTINUING FOR 12 WK (STUDY DURATION: 13 WK), Route [Inhibitor]: DERMAL, Species: MOUSE, Strain/Sex: CD-1/FEMALE, Target Tissue: Type of Lesion: SKIN: PAPILLOMA, Dose [Carcinogen]: 20 NMOL ONCE, Promoter: 12-O-TETRADECANOYLPHORBOL-13-ACETATE, 16561-29-8) is listed as 96%, 70%, 27%, p<0.05 and the “tumour outcome (control, treated, inhibition, significance)” value (Carcinogen: 7,12-DIMETHYLBENZ[A]ANTHRACENE, 57-97-6, Dose [Inhibitor]: 0.25 NMOL 2/WK STARTING 1 WK AFTER CARCINOGEN TREATMENT AND CONTINUING FOR 9 WK (STUDY DURATION: 10 WK), Route [Inhibitor]: DERMAL, Species: MOUSE, Strain/Sex: CD-1/FEMALE, Target Tissue: Type of Lesion: SKIN: PAPILLOMA, Dose [Carcinogen]: 20 NMOL ONCE, Promoter: 12-O-TETRADECANOYLPHORBOL-13-ACETATE, 16561-29-8) is listed as 77%, 33%, 57%, p<0.05. The “tumour outcome (control, treated, inhibition, significance)” value (Carcinogen: 7,12-DIMETHYLBENZ[A]ANTHRACENE, 57-97-6, Dose [Inhibitor]: 0.25 NMOL 2/WK STARTING 1 WK AFTER CARCINOGEN TREATMENT AND CONTINUING FOR 12 WK (STUDY DURATION: 13 WK), Route [Inhibitor]: DERMAL, Species: MOUSE, Strain/Sex: CD-1/FEMALE, Target Tissue: Type of Lesion: SKIN: PAPILLOMA, Dose [Carcinogen]: 20 NMOL ONCE, Promoter: 12-O-TETRADECANOYLPHORBOL-13-ACETATE, 16561-29-8) was 96%, 70%, 27%, p<0.05, the “tumour outcome (control, treated, inhibition, significance)” value (Carcinogen: 7,12-DIMETHYLBENZ[A]ANTHRACENE, 57-97-6, Dose [Inhibitor]: 0.5 NMOL 2/WK STARTING 1 WK AFTER CARCINOGEN TREATMENT AND CONTINUING FOR 12 WK (STUDY DURATION: 13 WK), Route [Inhibitor]: DERMAL, Species: MOUSE, Strain/Sex: CD-1/FEMALE, Target Tissue: Type of Lesion: SKIN: PAPILLOMA, Dose [Carcinogen]: 20 NMOL ONCE, Promoter: 12-O-TETRADECANOYLPHORBOL-13-ACETATE, 16561-29-8) was 83%, 43%, 48%, p<0.05 and 96%, 59%, 39%, p<0.05 and the “tumour outcome (control, treated, inhibition, significance)” value (Carcinogen: 7,12-DIMETHYLBENZ[A]ANTHRACENE, 57-97-6, Dose [Inhibitor]: 0.5 NMOL 2/WK STARTING 1 WK AFTER CARCINOGEN TREATMENT AND CONTINUING FOR 15 WK (STUDY DURATION: 16 WK), Route [Inhibitor]: DERMAL, Species: MOUSE, Strain/Sex: CD-1/FEMALE, Target Tissue: Type of Lesion: SKIN: PAPILLOMA, Dose [Carcinogen]: 20 NMOL ONCE, Promoter: 12-O-TETRADECANOYLPHORBOL-13-ACETATE, 16561-29-8) was 88%, 59%, 33%, p<0.05 and 92%, 77%, 16%, not significant. For the same compound, the “tumour outcome (control, treated, inhibition, significance)” value (Carcinogen: 7,12-DIMETHYLBENZ[A]ANTHRACENE, 57-97-6, Dose [Inhibitor]: 2 NMOL 2/WK STARTING 1 WK AFTER CARCINOGEN TREATMENT AND CONTINUING FOR 9 WK (STUDY DURATION: 10 WK), Route [Inhibitor]: DERMAL, Species: MOUSE, Strain/Sex: CD-1/FEMALE, Target Tissue: Type of Lesion: SKIN: PAPILLOMA, Dose [Carcinogen]: 20 NMOL ONCE, Promoter: 12-O-TETRADECANOYLPHORBOL-13-ACETATE, 16561-29-8) was 47%, 4%, 91%, p<0.05, the “tumour outcome (control, treated, inhibition, significance)” value (Carcinogen: 7,12-DIMETHYLBENZ[A]ANTHRACENE, 57-97-6, Dose [Inhibitor]: 2 NMOL 2/WK STARTING 1 WK AFTER CARCINOGEN TREATMENT AND CONTINUING FOR 12 WK (STUDY DURATION: 13 WK), Route [Inhibitor]: DERMAL, Species: MOUSE, Strain/Sex: CD-1/FEMALE, Target Tissue: Type of Lesion: SKIN: PAPILLOMA, Dose [Carcinogen]: 20 NMOL ONCE, Promoter: 12-O-TETRADECANOYLPHORBOL-13-ACETATE, 16561-29-8) was 83%, 12%, 86%, p<0.05 and the “tumour outcome (control, treated, inhibition, significance)” value (Carcinogen: 7,12-DIMETHYLBENZ[A]ANTHRACENE, 57-97-6, Dose [Inhibitor]: 2 NMOL 2/WK STARTING 1 WK AFTER CARCINOGEN TREATMENT AND CONTINUING FOR 15 WK (STUDY DURATION: 16 WK), Route [Inhibitor]: DERMAL, Species: MOUSE, Strain/Sex: CD-1/FEMALE, Target Tissue: Type of Lesion: SKIN: PAPILLOMA, Dose [Carcinogen]: 20 NMOL ONCE, Promoter: 12-O-TETRADECANOYLPHORBOL-13-ACETATE, 16561-29-8) was 88%, 18%, 80%, p<0.05. For the same compound, the “tumour outcome (control, treated, inhibition, significance)” value (Carcinogen: N-METHYL-N-NITROSOUREA [684-93-5], Dose [Inhibitor]: 0, 0.8 ML OF 10 µM ETHANOL SOLUTION ADMINISTERED IN NORMAL SALINE VIA CATHETER 1X/WK FOR 7 WK BEGINNING 3 WK POST CARCIN, Route [Inhibitor]: INTRAVESICAL, Species: RAT, Strain/Sex: F344/FEMALE, Target Tissue: Type of Lesion: URINARY BLADDER: TUMOR, Dose [Carcinogen]: ONCE/2 WK FOR 6 WK (STUDY DURATION: 31 WK; DOSE NOT REPORTED), Promoter: NONE) was 6/9 (67%), 5/9 (56%), 16%, not significant.
